Source: US9840513B2 (AbbVie S.à.r.l., priority 2015, dated 2017)

Target: T1, F508delCFTR cell surface expression in CFBE41o-F508delCFTR-HRP cells (Homo sapiens, UniProt P13569, DEL508-508)
T1 construct: fused on or other part: Horseradish peroxidase (HRP) reporter inserted in the fourth exofacial (extracellular) loop of CFTR; expression is doxycycline-inducible
Assay: Cell Surface Expression-Horse Radish Peroxidase (CSE-HRP) Assay
Format: cell-based
Details: for EC50: CFBE41o-F508delCFTR-HRP cells, 18-24 hours at 33° C., 8-point curve, highest concentration 20 μM; for Maximum % activity (%): maximum at any tested concentration, normalized to on-plate positive control (3 μM)
Procedure, shortened: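 CFBE41o- cells with HRP-tagged F508delCFTR, expression induced by 0.5 μg/mL doxycycline for 72 h at 37 °C, then compound for 18-24 h at 33 °C (8-point, 3-fold, top 20 μM). Surface HRP measured by luminol luminescence; % activity normalised to 3 μM positive-control corrector; EC50 from variable-slope sigmoidal fit, three replicate plates.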

T1 sequence (P13569 with tags, fused parts or gaps DEL508-508 limits assumed): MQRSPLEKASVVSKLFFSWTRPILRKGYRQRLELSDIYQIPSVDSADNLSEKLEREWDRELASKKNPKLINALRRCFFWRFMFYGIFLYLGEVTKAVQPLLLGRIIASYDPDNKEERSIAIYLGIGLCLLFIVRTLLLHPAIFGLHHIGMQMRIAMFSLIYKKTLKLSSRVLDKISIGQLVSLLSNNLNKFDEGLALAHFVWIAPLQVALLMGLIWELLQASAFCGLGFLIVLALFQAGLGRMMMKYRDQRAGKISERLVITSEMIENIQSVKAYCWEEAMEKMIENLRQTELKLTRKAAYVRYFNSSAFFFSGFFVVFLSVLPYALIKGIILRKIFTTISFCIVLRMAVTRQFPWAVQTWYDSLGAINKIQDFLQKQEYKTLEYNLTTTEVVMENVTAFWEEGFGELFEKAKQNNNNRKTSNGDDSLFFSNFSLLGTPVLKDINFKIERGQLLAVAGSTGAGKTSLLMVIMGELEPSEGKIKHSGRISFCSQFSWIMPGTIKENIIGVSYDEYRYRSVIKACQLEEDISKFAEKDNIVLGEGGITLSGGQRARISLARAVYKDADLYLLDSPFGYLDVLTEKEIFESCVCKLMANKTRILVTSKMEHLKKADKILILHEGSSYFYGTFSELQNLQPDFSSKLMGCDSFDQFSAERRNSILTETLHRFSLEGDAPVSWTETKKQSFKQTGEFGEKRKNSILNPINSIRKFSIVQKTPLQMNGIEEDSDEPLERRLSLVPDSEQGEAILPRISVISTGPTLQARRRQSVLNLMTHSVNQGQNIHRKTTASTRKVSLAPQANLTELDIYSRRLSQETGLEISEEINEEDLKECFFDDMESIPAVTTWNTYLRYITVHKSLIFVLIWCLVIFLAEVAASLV
T1 sequence (P13569 919-1480 limits assumed, stated change not applied): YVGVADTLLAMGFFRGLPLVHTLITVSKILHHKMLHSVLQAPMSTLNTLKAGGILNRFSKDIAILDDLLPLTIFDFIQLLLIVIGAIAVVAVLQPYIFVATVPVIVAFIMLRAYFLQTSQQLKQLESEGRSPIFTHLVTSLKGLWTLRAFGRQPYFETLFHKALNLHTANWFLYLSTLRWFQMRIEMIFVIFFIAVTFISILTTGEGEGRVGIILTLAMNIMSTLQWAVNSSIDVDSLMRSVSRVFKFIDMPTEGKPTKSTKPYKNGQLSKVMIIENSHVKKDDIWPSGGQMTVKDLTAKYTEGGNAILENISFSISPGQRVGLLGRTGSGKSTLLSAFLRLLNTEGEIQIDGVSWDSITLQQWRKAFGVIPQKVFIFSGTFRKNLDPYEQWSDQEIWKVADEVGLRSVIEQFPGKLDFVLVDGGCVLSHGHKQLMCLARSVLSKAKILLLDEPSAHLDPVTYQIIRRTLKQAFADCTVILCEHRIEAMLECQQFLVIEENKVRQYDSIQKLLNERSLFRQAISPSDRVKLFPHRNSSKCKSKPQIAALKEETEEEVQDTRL

COc1ccc2c(c1)O[C@@H](c1ccc(C(=O)N3CC(O)(CCO)C3)cn1)C[C@H]2NC(=O)[C@@]1(C)COc2cc3c(cc21)OC(F)(F)O3 [Example 239, (7R)-2,2-difluoro-N-[(2R,4R)-2-{5-[3-hydroxy-3-(2-hydroxyethyl)azetidine-1-carbonyl]pyridin-2-yl}-7-methoxy-3,4-dihydro-2H-1-benzopyran-4-yl]-7-methyl-6,7-dihydro-2H-furo[2,3-f][1,3]benzodioxole-7-carboxamide]
EC50: 40 nM
Maximum % activity (%): 111%

COc1ccc2c(c1)O[C@@H](c1ccc(C(=O)N3CCOCC3CO)cn1)C[C@H]2NC(=O)[C@@]1(C)COc2cc3c(cc21)OC(F)(F)O3 (stereo partly drawn) [Example 240, (7R)-2,2-difluoro-N-[(2R,4R)-2-{5-[3-(hydroxymethyl)morpholine-4-carbonyl]pyridin-2-yl}-7-methoxy-3,4-dihydro-2H-1-benzopyran-4-yl]-7-methyl-6,7-dihydro-2H-furo[2,3-f][1,3]benzodioxole-7-carboxamide]
EC50: 60 nM
Maximum % activity (%): 132%

COc1ccc2c(c1)O[C@@H](c1ccc(C(=O)NCC(C)O)cn1)C[C@H]2NC(=O)[C@@]1(C)COc2cc3c(cc21)OC(F)(F)O3 (stereo partly drawn) [Example 241, 6-[(2R,4R)-4-{[(7R)-2,2-difluoro-7-methyl-6,7-dihydro-2H-furo[2,3-f][1,3]benzodioxole-7-carbonyl]amino}-7-methoxy-3,4-dihydro-2H-1-benzopyran-2-yl]-N-(2-hydroxypropyl)pyridine-3-carboxamide]
EC50: 40 nM
Maximum % activity (%): 110%

COc1ccc2c(c1)O[C@@H](c1ccc(C(=O)NC(C)CO)cn1)C[C@H]2NC(=O)[C@@]1(C)COc2cc3c(cc21)OC(F)(F)O3 (stereo partly drawn) [Example 242, 6-[(2R,4R)-4-{[(7R)-2,2-difluoro-7-methyl-6,7-dihydro-2H-furo[2,3-f][1,3]benzodioxole-7-carbonyl]amino}-7-methoxy-3,4-dihydro-2H-1-benzopyran-2-yl]-N-(1-hydroxypropan-2-yl)pyridine-3-carboxamide]
EC50: 40 nM
Maximum % activity (%): 116%

COc1ccc2c(c1)O[C@@H](c1ccc(C(=O)NCCO)cn1)C[C@H]2NC(=O)[C@@]1(C)COc2cc3c(cc21)OC(F)(F)O3 [Example 244, 6-[(2R,4R)-4-{[(7R)-2,2-difluoro-7-methyl-6,7-dihydro-2H-furo[2,3-f][1,3]benzodioxole-7-carbonyl]amino}-7-methoxy-3,4-dihydro-2H-1-benzopyran-2-yl]-N-(2-hydroxyethyl)pyridine-3-carboxamide]
EC50: 30 nM
Maximum % activity (%): 114%

COc1ccc2c(c1)O[C@@H](c1ccc(C(=O)NC[C@H]3C[C@H](O)C3)cn1)C[C@H]2NC(=O)[C@@]1(C)COc2cc3c(cc21)OC(F)(F)O3 [Example 245, 6-[(2R,4R)-4-{[(7R)-2,2-difluoro-7-methyl-6,7-dihydro-2H-furo[2,3-f][1,3]benzodioxole-7-carbonyl]amino}-7-methoxy-3,4-dihydro-2H-1-benzopyran-2-yl]-N-[(trans-3-hydroxycyclobutyl)methyl]pyridine-3-carboxamide]
EC50: 50 nM
Maximum % activity (%): 107%

COCC(CO)NC(=O)c1ccc([C@H]2C[C@@H](NC(=O)[C@@]3(C)COc4cc5c(cc43)OC(F)(F)O5)c3ccc(OC)cc3O2)nc1 (stereo partly drawn) [Example 246, 6-[(2R,4R)-4-{[(7R)-2,2-difluoro-7-methyl-6,7-dihydro-2H-furo[2,3-f][1,3]benzodioxole-7-carbonyl]amino}-7-methoxy-3,4-dihydro-2H-1-benzopyran-2-yl]-N-(1-hydroxy-3-methoxypropan-2-yl)pyridine-3-carboxamide]
EC50: 80 nM
Maximum % activity (%): 125%

CC1(C)OC[C@H](CN2CCC([C@H]3C[C@@H](NC(=O)[C@@]4(C)COc5cc6c(cc54)OC(F)(F)O6)c4ccc(OC(F)(F)F)cc4O3)CC2)O1 [Example 247, (7R)—N-[(2R,4R)-2-(1-{[(4S)-2,2-dimethyl-1,3-dioxolan-4-yl]methyl}piperidin-4-yl)-7-(trifluoromethoxy)-3,4-dihydro-2H-1-benzopyran-4-yl]-2,2-difluoro-7-methyl-6,7-dihydro-2H-furo[2,3-f][1,3]benzodioxole-7-carboxamide]
EC50: 1180 nM
Maximum % activity (%): 181%

COc1ccc2c(c1)O[C@@H](c1ccc(C(=O)N3C[C@H](O)[C@@H](O)C3)cn1)C[C@H]2NC(=O)[C@@]1(C)COc2cc3c(cc21)OC(F)(F)O3 [Example 249, (7R)—N-[(2R,4R)-2-{5-[(3S,4S)-3,4-dihydroxypyrrolidine-1-carbonyl]pyridin-2-yl}-7-methoxy-3,4-dihydro-2H-1-benzopyran-4-yl]-2,2-difluoro-7-methyl-6,7-dihydro-2H-furo[2,3-f][1,3]benzodioxole-7-carboxamide]
EC50: 100 nM
Maximum % activity (%): 110%

CCN(CCO)C(=O)[C@H]1CC[C@H]([C@H]2C[C@@H](NC(=O)[C@@]3(C)COc4cc5c(cc43)OC(F)(F)O5)c3ccc(OC(F)(F)F)cc3O2)CC1 [Example 253, (7R)—N-[(2R,4R)-2-{trans-4-[ethyl(2-hydroxyethyl)carbamoyl]cyclohexyl}-7-(trifluoromethoxy)-3,4-dihydro-2H-1-benzopyran-4-yl]-2,2-difluoro-7-methyl-6,7-dihydro-2H-furo[2,3-f][1,3]benzodioxole-7-carboxamide]
EC50: 60 nM
Maximum % activity (%): 150%

C[C@]1(C(=O)N[C@@H]2C[C@H]([C@H]3CC[C@H](C(=O)N(CCO)CCO)CC3)Oc3cc(OC(F)(F)F)ccc32)COc2cc3c(cc21)OC(F)(F)O3 [Example 254, (7R)—N-[(2R,4R)-2-{trans-4-[bis(2-hydroxyethyl)carbamoyl]cyclohexyl}-7-(trifluoromethoxy)-3,4-dihydro-2H-1-benzopyran-4-yl]-2,2-difluoro-7-methyl-6,7-dihydro-2H-furo[2,3-f][1,3]benzodioxole-7-carboxamide]
EC50: 80 nM
Maximum % activity (%): 136%

C[C@]1(C(=O)N[C@@H]2C[C@H]([C@H]3CC[C@H](C(=O)N4C[C@@H](O)[C@H](O)C4)CC3)Oc3cc(OC(F)(F)F)ccc32)COc2cc3c(cc21)OC(F)(F)O3 [Example 255, (7R)—N-[(2R,4R)-2-{trans-4-[(3R,4R)-3,4-dihydroxypyrrolidine-1-carbonyl]cyclohexyl}-7-(trifluoromethoxy)-3,4-dihydro-2H-1-benzopyran-4-yl]-2,2-difluoro-7-methyl-6,7-dihydro-2H-furo[2,3-f][1,3]benzodioxole-7-carboxamide]
EC50: 90 nM
Maximum % activity (%): 158%

C[C@]1(C(=O)N[C@@H]2C[C@H]([C@H]3CC[C@H](C(=O)N4CCOCC4CO)CC3)Oc3cc(OC(F)(F)F)ccc32)COc2cc3c(cc21)OC(F)(F)O3 (stereo partly drawn) [Example 257, (7R)-2,2-difluoro-N-[(2R,4R)-2-{trans-4-[3-(hydroxymethyl)morpholine-4-carbonyl]cyclohexyl}-7-(trifluoromethoxy)-3,4-dihydro-2H-1-benzopyran-4-yl]-7-methyl-6,7-dihydro-2H-furo[2,3-f][1,3]benzodioxole-7-carboxamide]
EC50: 70 nM
Maximum % activity (%): 170%

CC(O)CNC(=O)[C@H]1CC[C@H]([C@H]2C[C@@H](NC(=O)[C@@]3(C)COc4cc5c(cc43)OC(F)(F)O5)c3ccc(OC(F)(F)F)cc3O2)CC1 (stereo partly drawn) [Example 258, (7R)-2,2-difluoro-N-[(2R,4R)-2-{trans-4-[(2-hydroxypropyl)carbamoyl]cyclohexyl}-7-(trifluoromethoxy)-3,4-dihydro-2H-1-benzopyran-4-yl]-7-methyl-6,7-dihydro-2H-furo[2,3-f][1,3]benzodioxole-7-carboxamide]
EC50: 110 nM
Maximum % activity (%): 174%

CC(CO)NC(=O)[C@H]1CC[C@H]([C@H]2C[C@@H](NC(=O)[C@@]3(C)COc4cc5c(cc43)OC(F)(F)O5)c3ccc(OC(F)(F)F)cc3O2)CC1 (stereo partly drawn) [Example 259, (7R)-2,2-difluoro-N-[(2R,4R)-2-{trans-4-[(1-hydroxypropan-2-yl)carbamoyl]cyclohexyl}-7-(trifluoromethoxy)-3,4-dihydro-2H-1-benzopyran-4-yl]-7-methyl-6,7-dihydro-2H-furo[2,3-f][1,3]benzodioxole-7-carboxamide]
EC50: 80 nM
Maximum % activity (%): 163%

C[C@]1(C(=O)N[C@@H]2C[C@H]([C@H]3CC[C@H](C(=O)Nc4ccccc4O)CC3)Oc3cc(OC(F)(F)F)ccc32)COc2cc3c(cc21)OC(F)(F)O3 [Example 262, (7R)-2,2-difluoro-N-[(2R,4R)-2-{trans-4-[(2-hydroxyphenyl)carbamoyl]cyclohexyl}-7-(trifluoromethoxy)-3,4-dihydro-2H-1-benzopyran-4-yl]-7-methyl-6,7-dihydro-2H-furo[2,3-f][1,3]benzodioxole-7-carboxamide]
EC50: 90 nM
Maximum % activity (%): 184%

C[C@]1(C(=O)N[C@@H]2C[C@H]([C@H]3CC[C@H](C(=O)N(CCO)Cc4ccccc4)CC3)Oc3cc(OC(F)(F)F)ccc32)COc2cc3c(cc21)OC(F)(F)O3 [Example 264, (7R)—N-[(2R,4R)-2-{trans-4-[benzyl(2-hydroxyethyl)carbamoyl]cyclohexyl}-7-(trifluoromethoxy)-3,4-dihydro-2H-1-benzopyran-4-yl]-2,2-difluoro-7-methyl-6,7-dihydro-2H-furo[2,3-f][1,3]benzodioxole-7-carboxamide]
EC50: 60 nM
Maximum % activity (%): 186%
